Assay results as given in paper PMC3608422 (Xenobiotica; the fate of foreign compounds in biological …, 2011).
Where two headings read alike, the source gives them in different places.

Key:
[1] = molecular target: mouse brain CB1Rs (mCB1Rs) (Mus musculus, UniProt P47746); assay: biochemical; type: binding; conditions: for Selectivity: mCB1 versus hCB2 binding; for hCB2/mCB1 (Ki ratio): ratio of Ki hCB2 to Ki mCB1
[2] = molecular target: human CB2Rs (hCB2Rs) stably expressed in CHO cells (Homo sapiens, UniProt P34972); assay: biochemical; type: binding
Sequence of human CB2Rs (hCB2Rs) stably expressed in CHO cells (P34972 whole entry): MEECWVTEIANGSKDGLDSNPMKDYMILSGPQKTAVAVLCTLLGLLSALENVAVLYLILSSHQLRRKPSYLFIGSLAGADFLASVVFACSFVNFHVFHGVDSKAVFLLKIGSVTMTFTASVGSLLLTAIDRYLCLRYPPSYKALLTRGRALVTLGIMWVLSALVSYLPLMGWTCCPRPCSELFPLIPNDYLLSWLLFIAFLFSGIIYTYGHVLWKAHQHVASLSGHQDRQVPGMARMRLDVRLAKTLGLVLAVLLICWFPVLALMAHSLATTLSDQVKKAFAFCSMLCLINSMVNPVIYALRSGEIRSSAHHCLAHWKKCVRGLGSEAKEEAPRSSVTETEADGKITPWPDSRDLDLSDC

mCB1Rs = mCB1Rs (Mus musculus, UniProt P47746); type: biochemical; conditions: for effect on basal G-protein activity ([35S]GTPγS binding): 10 µM
Sequence of mCB1Rs (P47746 whole entry): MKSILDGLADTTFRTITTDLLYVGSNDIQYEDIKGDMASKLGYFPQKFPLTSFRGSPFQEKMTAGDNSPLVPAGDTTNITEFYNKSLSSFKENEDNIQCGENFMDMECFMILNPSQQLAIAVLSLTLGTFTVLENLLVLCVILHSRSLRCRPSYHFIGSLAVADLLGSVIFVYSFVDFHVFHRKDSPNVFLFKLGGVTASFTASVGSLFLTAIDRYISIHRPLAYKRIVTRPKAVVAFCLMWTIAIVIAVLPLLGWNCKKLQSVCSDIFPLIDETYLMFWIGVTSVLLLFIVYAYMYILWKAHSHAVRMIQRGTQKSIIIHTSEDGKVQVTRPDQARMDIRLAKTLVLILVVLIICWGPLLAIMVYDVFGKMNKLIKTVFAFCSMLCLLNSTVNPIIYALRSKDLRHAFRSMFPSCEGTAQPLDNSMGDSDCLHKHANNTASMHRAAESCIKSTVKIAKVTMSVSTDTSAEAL

CB2Rs = conditions: read-out: affinity for CB2Rs; ref Mechoulam et al. 1995; cited from earlier work
CB1Rs = conditions: read-out: affinity for CB1Rs; ref Mechoulam et al. 1995; cited from earlier work
[3] = co-administration with 30 µM of the compound
[4] = co-administration with 10 µM of the compound

Sequence of mouse brain CB1Rs (mCB1Rs) (P47746 whole entry): as above

Compound | Ki [1] [µM] | Selectivity [1] | hCB2/mCB1 (Ki ratio) [1] | Ki [2] [µM] | effect on basal G-protein activity ([35S]GTPγS binding) (mCB1Rs; mouse brain membranes) | also measured
CC(C)C=Cc1c(O)cc(/C=C/c2ccc(O)cc2)cc1O [tA3, trans-4-(3-methyl-1-butenyl)-3,5,4′-trihydroxystilbene] | 17.5 ± 3.4 | Non-selective | 0.6 | 11.3 ± 0.6 | have little effect | ED50 of CB1R agonist CP-55,940 to activate G-proteins on co-administration (mCB1Rs; [3]): 0.127 µM; fold increase (shift-to-the-right) in ED50 of CP-55,940 (mCB1Rs; [3]): 30 fold
CCCCC/C=C\C/C=C\C/C=C\C/C=C\CCCC(=O)OC(CO)CO [2-arachidonoylglycerol] | – | – | – | – | – | Ki (CB2Rs): ~1.5 µM; Ki (CB1Rs): ~0.5 µM
CC(C)C=Cc1c(O)cc(/C=C/c2ccc(O)c(O)c2)cc1O [tA1, trans-4-(3-methyl-1-butenyl)-3,5,3′,4′-tetrahydroxystilbene] | 5.6 ± 0.4 | Non-selective | 2.3 | 12.6 ± 1.7 | markedly reduce | concentration at which substrate inhibition is seen (UGT1A9): > 500 µM; ED50 of CB1R agonist CP-55,940 to activate G-proteins on co-administration (mCB1Rs; [4]): 0.028 µM; fold increase (shift-to-the-right) in ED50 of CP-55,940 (mCB1Rs; [4]): 7 fold; maximal response produced by CP-55,940 on co-administration (mCB1Rs; [4]): 0.22 ± 0.04 pmol/mg protein; attenuation by O-2050 of the reduction of basal G-protein activity (mCB1Rs; compound 10 µM co-incubated with neutral CB1R antagonist O-2050 1 µM): did not significantly attenuate; glucuronidation by UGT1A1 (UGT1A1): no visible glucuronidation
Oc1ccc(/C=C/c2cc(O)cc(O)c2)cc1 [tRes, trans-3,5,4′-trihydroxystilbene, reference compound] | 14.3 ± 1.6 | – | – | – | – | –
Oc1cc(O)cc(/C=C/c2ccc(O)c(O)c2)c1 [tPice, trans 3,5,3′,4′-tetrahydroxystilbene, reference compound] | 11.7 ± 1 | CB1 | 9.7 | 114 ± 7.8 | markedly reduce | –
CC1=CC[C@@H]2[C@@H](C1)c1c(O)cc(CC#CCCCNS(C)(=O)=O)cc1OC2(C)C [O-2050, reference compound] | – | – | – | – | – | effect on G-protein activity ([35S]GTPγS binding) (mCB1Rs; mouse brain membranes, 1 µM): produced no effect
